Tested on: Plasmodium berghei
Test: Luciferase/luciferin-expressing antifolate-resistant parasites were used to infect a culture of HepG2 cells that were pre-incubated with compounds. Infected hepatocytes emit light due to the luciferase reaction. Assay results are presented as the percent inhibition of light emission compared to control. […]
Format: functional
Settings: sporozoite; for IC90: read-out: LUCIFERASE INFECTION ASSAY - IC90
[1] = read-out: LUCIFERASE INFECTION ASSAY - IC50

Structure (SMILES) | IC90 [µM] | IC50 [1] [µM] | further results
NC(=O)c1cc(-c2cs/c(=N\c3ccccc3F)n2C2CCCC2)ccc1O | > 10 |  | IC50 (PBLUC_HILL_SLOPE 1.38, PBLUC_R_SQUARED 0.237, read-out: LUCIFERASE INFECTION ASSAY - IC50): 4.32 µM
CN1/C(=C\C(=O)COC(=O)c2cc3ccccc3cc2O)C(C)(C)c2ccccc21 | > 10 | > 10 | 
COc1cc(OC)cc(C(=O)NNC(=O)CCC(=O)c2ccc(Cl)s2)c1 | > 10 | > 10 | 
O=C(Nc1ccc(-c2nc3ccccc3[nH]2)cc1)C1CCC1 | > 10 |  | IC50 (FFLUC_HILL_SLOPE 0.826, FFLUC_R_SQUARED 0.895, PBLUC_HILL_SLOPE 0.293, PBLUC_R_SQUARED 0.545, read-out: LUCIFERASE INFECTION ASSAY - IC50): 0.543 µM
COc1cc2c(cc1OC)C(c1cccc(C(F)(F)F)c1)CC(=O)N2 (stereo unspecified) | > 9.39 | > 9.39 | 
COc1ccccc1-n1c(C)cc(/C=C(\C#N)c2nnc3n2CCCCC3)c1C | > 10 |  | IC50 (PBLUC_HILL_SLOPE 15.5, PBLUC_R_SQUARED 0.0701, read-out: LUCIFERASE INFECTION ASSAY - IC50): 9.71 µM
Cn1c(NCc2ccccc2)nc2cnc(Nc3ccc(OC(F)(F)F)cc3)cc21 | 3.61 |  | IC50 (FFLUC_HILL_SLOPE 10.9, FFLUC_R_SQUARED 0.015, PBLUC_HILL_SLOPE 2.54, PBLUC_R_SQUARED 0.635, read-out: LUCIFERASE INFECTION ASSAY - IC50): 1.52 µM
O=C(CSCCCN1CCN(c2cccc(Cl)c2)CC1)N/N=C/c1ccc(Cl)cc1 | > 7.09 | > 7.09 | 
CNc1nc2cnc(Nc3cccc(NC(C)=O)c3)cc2n1-c1cccc(F)c1 | > 10 |  | IC50 (HEPG2TOX_HILL_SLOPE 2.07, HEPG2TOX_R_SQUARED 0.855, PBLUC_HILL_SLOPE 1.72, PBLUC_R_SQUARED 0.4, read-out: LUCIFERASE INFECTION ASSAY - IC50): 3.92 µM
Cc1nc(SCc2nc(-c3cccs3)no2)c(C#N)c(C)c1C | 0.683 | 0.0298 | 
CC(C)(C)c1ccc(-c2cc3[nH]c(-c4ccccc4)cc(=O)n3n2)cc1 | 3.76 |  | IC50 (HEPG2TOX_HILL_SLOPE 2.71, HEPG2TOX_R_SQUARED 0.618, PBLUC_HILL_SLOPE 3.36, PBLUC_R_SQUARED 0.487, read-out: LUCIFERASE INFECTION ASSAY - IC50): 1.95 µM
COC(=O)c1sc(SC)c2c1CC(C)(C)C/C2=N\O | > 11 | > 11 | 
CCCNC(=O)c1c(NC(=O)c2ccc(F)c(F)c2F)nc2ccccn12 | > 8.77 |  | IC50 (HEPG2TOX_HILL_SLOPE 5.13, HEPG2TOX_R_SQUARED 0.252, PBLUC_HILL_SLOPE 2.06, PBLUC_R_SQUARED 0.791, read-out: LUCIFERASE INFECTION ASSAY - IC50): 6.47 µM
COc1ccc(-c2csc3ncnc(NC(C)c4ccc(Cl)cc4Cl)c23)cc1 (stereo unspecified) | > 10 | > 10 | 
CCC(C)c1ccc(NC(=O)Cc2ccc(NS(=O)(=O)c3ccc(Cl)c(Cl)c3)cc2)cc1 (stereo unspecified) | > 10 |  | IC50 (PBLUC_HILL_SLOPE 11.4, PBLUC_R_SQUARED 0.218, read-out: LUCIFERASE INFECTION ASSAY - IC50): 9.54 µM
O=C(NCCO)c1cccc(-c2cn3c(-c4ccc(Cl)cc4)cnc3cn2)c1 | 3.17 |  | IC50 (HEPG2TOX_HILL_SLOPE 8.8, HEPG2TOX_R_SQUARED 0.456, PBLUC_HILL_SLOPE 3.73, PBLUC_R_SQUARED 0.895, read-out: LUCIFERASE INFECTION ASSAY - IC50): 1.76 µM
COc1cc(C(=O)N2CC=C(c3c[nH]c4ccccc34)CC2)cc(Cl)c1OC | > 10 |  | IC50 (HEPG2TOX_HILL_SLOPE 1.93, HEPG2TOX_R_SQUARED 0.934, PBLUC_HILL_SLOPE 11.8, PBLUC_R_SQUARED 0.218, read-out: LUCIFERASE INFECTION ASSAY - IC50): 8.9 µM

Structure (SMILES) | IC90 [µM] | IC50 [1] [µM] | further results
Cc1ccc(-c2cnn3c(NCCN(C)C)cc(C)nc23)cc1 | 10.6 |  | IC50 (PBLUC_HILL_SLOPE 1.98, PBLUC_R_SQUARED 0.569, read-out: LUCIFERASE INFECTION ASSAY - IC50): 3.5 µM
C#CCSc1nnc(-c2ccc(C(C)(C)C)cc2)n1C | 5.91 |  | IC50 (PBLUC_HILL_SLOPE 2.86, PBLUC_R_SQUARED 0.337, read-out: LUCIFERASE INFECTION ASSAY - IC50): 2.74 µM
c1ccc(OCCCN2CCC(c3nc4ccccc4s3)CC2)cc1 | > 9.36 |  | IC50 (PBLUC_HILL_SLOPE 3.81, PBLUC_R_SQUARED 0.48, read-out: LUCIFERASE INFECTION ASSAY - IC50): 7.8 µM
CC(C)c1ccc(NC(=O)N2[C@@H]3CC[C@@H](C3)[C@H]2c2nc3c(OCC4CC4)cccc3[nH]2)cc1 | > 10 |  | IC50 (PBLUC_HILL_SLOPE 2.47, PBLUC_R_SQUARED 0.452, read-out: LUCIFERASE INFECTION ASSAY - IC50): 6.2 µM
O=C(OCC(=O)C12CC3CC(CC(C3)C1)C2)c1cc2ccccc2cc1O | > 10 | > 10 | 
C=C(CS(=O)(=O)c1ccccc1)C(=O)Nc1ccc(C(F)(F)F)cc1 | 7.91 |  | IC50 (HEPG2TOX_HILL_SLOPE 10, HEPG2TOX_R_SQUARED 0.961, PBLUC_HILL_SLOPE 2.89, PBLUC_R_SQUARED 0.554, read-out: LUCIFERASE INFECTION ASSAY - IC50): 3.7 µM
CCCn1c(SCC(=O)NCC23CC4CC(CC(C4)C2)C3)nc2cc(Cl)ccc2c1=O | > 10 |  | IC50 (FFLUC_HILL_SLOPE 1.09, FFLUC_R_SQUARED 0.071, read-out: LUCIFERASE INFECTION ASSAY - IC50): > 10 µM
N/C(CC(=O)Nc1ccc(F)cc1F)=N\O | > 14.4 | > 14.4 | 
COc1ccc(-c2cnc3sc(NCCc4ccccn4)nn23)cn1 | > 9.36 | > 9.36 | 
O=C1C(=Nc2ccc(O)cc2)C=C(NS(=O)(=O)c2cccs2)c2ccccc21 | 3.54 |  | IC50 (FFLUC_HILL_SLOPE 12.7, FFLUC_R_SQUARED 0.111, HEPG2TOX_HILL_SLOPE 2.05, HEPG2TOX_R_SQUARED 0.969, PBLUC_HILL_SLOPE 9.12, PBLUC_R_SQUARED 0.459, read-out: LUCIFERASE INFECTION ASSAY - IC50): 2.78 µM
CN1CCN(c2ccc(Cl)cc2NC(=O)CCc2nc3ccccc3s2)CC1 | > 10 | > 10 | 
CC1(C(=O)NCc2ccco2)Cc2c(-c3ccc4c(c3)OCO4)ccnc2O1 (stereo unspecified) | > 8.72 |  | IC50 (FFLUC_HILL_SLOPE 0.436, FFLUC_R_SQUARED 0.176, HEPG2TOX_HILL_SLOPE 1.94, HEPG2TOX_R_SQUARED 0.783, PBLUC_HILL_SLOPE 1.2, PBLUC_R_SQUARED 0.613, read-out: LUCIFERASE INFECTION ASSAY - IC50): 2.28 µM
COc1ccc(-c2cnc3cnc(-c4ccc(N5CCN(C)CC5)cc4)cn23)cc1 | > 8.26 |  | IC50 (PBLUC_HILL_SLOPE 4.21, PBLUC_R_SQUARED 0.0945, read-out: LUCIFERASE INFECTION ASSAY - IC50): 6.36 µM
Cn1nc(SCC(=O)NN)c(=O)n(C)c1=O | 3.54 |  | IC50 (PBLUC_HILL_SLOPE 9.87, PBLUC_R_SQUARED 0.424, read-out: LUCIFERASE INFECTION ASSAY - IC50): 2.84 µM
CN1/C(=C\C(=O)COC(=O)C2Cc3ccccc3CN2C(=O)c2ccccc2)C(C)(C)c2ccccc21 (stereo unspecified) | > 10 |  | IC50 (PBLUC_HILL_SLOPE 1.63, PBLUC_R_SQUARED 0.576, read-out: LUCIFERASE INFECTION ASSAY - IC50): 3.35 µM
NC(Cc1ccc(C(F)(F)F)cc1)c1csc(Nc2cc(Oc3ccccc3)ncn2)n1 (stereo unspecified) | > 7.21 |  | IC50 (PBLUC_HILL_SLOPE 3.27, PBLUC_R_SQUARED 0.275, read-out: LUCIFERASE INFECTION ASSAY - IC50): 4.26 µM

Source: ChEMBL document CHEMBL4483862, “Open-source discovery of chemical leads for next-generation chemoprotective antimalarials” (2018)
